Laboratory results from article PMC7504817, “Phenylalanine Stereoisomers of CJ-15,208 and [D-Trp]CJ-15,208 Exhibit Distinctly Different Opioid Activity Profiles” (Molecules, 2020).
Entries after “also recorded” stand apart in the source; their conditions may differ. Like-named read-outs stand apart in the source and are kept apart here.

Columns and labels:
[1] = Metabolic stability in mouse liver microsomes; type: in vitro ADME; conditions: pH 7.4, 5 µM peptide, 0.25 mg/mL protein, with NADPH, 37 °C, read-out: t1/2 in mouse liver microsomes
Protocol: The macrocyclic tetrapeptide (5 µM) in 1% acetonitrile was incubated with mouse liver microsomes (0.25 mg/mL protein, Xenotech, Lenexa, KS, USA) at 37 °C in the presence or absence of co-factor NADPH RapidStart System (1 mM, Xenotech) or NADPH solution (Sigma, St. Louis, MO, USA) in potassium phosphate buffer (50 mM, pH 7.4). Aliquots (100 µL) taken at 0, 5, 15, 30, 60 and 120 min were quenched with ice-cold acetonitrile (1 vol) containing internal standard ([D-NMeAla^2]CJ-15,208 [26], 5 µM) to precipitate the proteins. The lack of endogenous interference with the analysis of the stereoisomer or internal standard was confirmed by analyzing samples lacking the macrocyclic tetrapeptide.
Following centrifugation at 10,000× g rpm for 10 min, the supernatant (50 µL) was diluted with water (75 µL), stored overnight at −20 °C and analyzed by LC-MS/MS using methodology similar to that described for [D-Trp]CJ-15,208 [32]. Liquid chromatography was performed on a Hypersil BDS C8 column (50 mm × 2.1 mm, 3 µm) with a flow rate of 0.2 mL/min and an injection volume of 20 µL using an Acquity UPLC system (Waters, Milford, MA, USA). The peptides were separated using a gradient of aqueous acetonitrile containing 0.08% formic acid of 20% B (0–2 min), 20–50% B (2–3 min), 50–80% B (3–6 min), 80% B (6–7 min), 80–20% B (7–8 min) and 20% B (8–10 min).
ESI-MS/MS was performed on a Waters Quatro triple quadrupole instrument operating in the positive ion multiple reaction monitoring mode. Data acquisition was carried out with Mass Lynx 4.1 software with the following settings: capillary voltage, 2500 V; cone voltage, 30 V; source temperature, 100 °C; desolvation temperature, 250 °C; cone gas flow, 279 L/h; desolvation gas flow, 1157 L/h; LM 1 resolution, 14; HM 1 resolution, 14; ion energy 1, 1.0; MS/MS mode entrance, -1; MS/MS collision energy, 35 eV; MS/MS mode exit, 2; LM 2 resolution, 13.0; HM 2 resolution, 13.0; ion energy 2, 1.5; multiplier, 650; collision cell pressure, 1.63 × 10^−3 mbar; collision gas, argon. The transition m/z 578.2 ([M + H]^+) → 217.2 was monitored to determine the peak area counts of the stereoisomers, and m/z 566.2 ([M + H]^+) → 232.9 was monitored to determine the peak area counts of the internal standard (collision energy 22 eV) with the following settings: dwell time, 0.3 s; delay, 0.05 s.

C57BL/6J mice [2] = conditions: mouse, in vivo
C57BL/6J mice [3] = test: Acute antinociceptive tolerance (tail-withdrawal assay, dosing at 0 and 8 h); conditions: i.c.v.; for Fold-Shift, Naïve ED50 vs. Second ED50: 0 h vs 8 h; for ED50 (95% C.I.) Pretreated Mice: 8 h after pretreatment with ED50 dose of the same compound, * significantly different from naïve; for acute antinociceptive tolerance: ED50 at 8 h vs 0 h; for Naïve ED50 (95% C.I.): naïve C57BL/6J mice, tail-withdrawal assay
rat MOR = molecular target: T1, rat MOR (Rattus norvegicus, UniProt P33535); test: Radioligand equilibrium competition binding, MOR; conditions: [3H]DAMGO; membranes from CHO cells expressing rat MOR; mean ± SEM, at least three experiments
T1 construct: expressed in transfected cells
T1 sequence (P33535 whole entry): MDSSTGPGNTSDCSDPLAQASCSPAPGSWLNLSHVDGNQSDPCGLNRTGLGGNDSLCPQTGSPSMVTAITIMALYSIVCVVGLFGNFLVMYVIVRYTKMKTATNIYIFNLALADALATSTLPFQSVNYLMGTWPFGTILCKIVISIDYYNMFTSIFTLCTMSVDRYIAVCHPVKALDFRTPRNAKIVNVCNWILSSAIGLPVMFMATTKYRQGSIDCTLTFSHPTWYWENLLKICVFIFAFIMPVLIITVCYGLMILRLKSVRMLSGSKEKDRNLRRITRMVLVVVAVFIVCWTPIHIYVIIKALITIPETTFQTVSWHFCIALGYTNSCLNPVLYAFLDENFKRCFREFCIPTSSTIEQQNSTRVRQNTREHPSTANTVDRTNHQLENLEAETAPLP

C57BL/6J mice [4] = test: Opioid receptor involvement in antinociception (antagonist pretreatment, tail-withdrawal assay); type: in vivo, mouse; conditions: i.c.v. (1, 3, 4, 5 at 10 nmol, 2 at 100 nmol); pretreatment with β-FNA, nor-BNI or naltrindole
rat KOR [5] = molecular target: T2, rat KOR (Rattus norvegicus, UniProt P34975); test: biochemical
T2 sequence (P34975 whole entry): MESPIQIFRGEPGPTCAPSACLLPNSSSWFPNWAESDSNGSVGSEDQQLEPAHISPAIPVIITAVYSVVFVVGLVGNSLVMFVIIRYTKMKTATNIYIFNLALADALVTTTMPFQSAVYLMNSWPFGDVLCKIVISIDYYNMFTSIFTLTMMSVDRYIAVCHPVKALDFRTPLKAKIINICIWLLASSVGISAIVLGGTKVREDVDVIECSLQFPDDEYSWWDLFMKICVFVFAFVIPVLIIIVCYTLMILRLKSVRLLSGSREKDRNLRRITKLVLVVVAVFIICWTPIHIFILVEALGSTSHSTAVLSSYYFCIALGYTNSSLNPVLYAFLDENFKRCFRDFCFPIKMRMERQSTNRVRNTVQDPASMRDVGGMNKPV

C57BL/6J mice [6] = test: 55 °C warm-water tail-withdrawal assay (antinociception); type: in vivo, mouse; set-up: key to ED50 p.o. (symbol: not calculable): ~: Maximum antinociception not achieved, precluding calculation of an ED50 value; conditions: for antinociception at the highest oral dose tested: 30 mg/kg; for antinociception at the highest oral dose tested / ED50 p.o. (symbol: not calculable) / antinociceptive efficacy / ED50 (and 95% C.I.) p.o.: p.o.; for ED50 (and 95% C.I.) i.c.v. / ED50 p.o. (symbol: not calculable) / ED50 (and 95% C.I.) p.o.: C57BL/6J mice; for ED50 (and 95% C.I.) i.c.v. / ED50 (and 95% C.I.) p.o.: antinociception at peak response
Protocol: For intracerebroventricular (i.c.v.) administration the macrocyclic tetrapeptides were dissolved in dimethyl sulfoxide (DMSO), followed by addition of sterile saline (0.9%) so that the final vehicle was 50% DMSO and 50% saline, and the i.c.v. injections performed as described previously. This concentration of DMSO was not observed to have antinociceptive or behavioral effects in previous use. For per os (p.o.) administration the macrocyclic tetrapeptides were administered in 10% Solutol in 0.9% saline. All solutions for animal administration were prepared fresh daily.
The 55 °C warm-water tail-withdrawal assay was performed in mice as previously described, with the latency of the mouse to withdraw its tail from the water taken as the endpoint (a cut-off time of 15 sec was used in this assay). Antinociception was calculated according to the following formula: % antinociception = 100 × (test latency − control latency)/(15 − control latency). Tail-withdrawal data points are the means of 8–16 mice, unless otherwise indicated, with SEM shown by error bars.
All dose-response lines were analyzed by regression, and ED50 (effective dose producing 50% antinociception) values and 95% confidence intervals (C.I.) determined using individual data points from graded dose-response curves with Prism 8.0 software (GraphPad, La Jolla, CA, USA). Percent antinociception was used to determine within group effects and to allow comparison to baseline latency in tail-withdrawal experiments. The statistical significance of differences between ED50 values was determined by evaluation of the ED50 value shift via nonlinear regression modeling with Prism software. Significant differences in behavioral data were analyzed by ANOVA (one-way or two-way with repeated measures (RM), as appropriate). Significant results were further analyzed with Sidak’s, Tukey’s, or Dunnett’s multiple comparison post hoc tests, as appropriate. Data for conditioned place preference experiments were analyzed by two-way RM ANOVA, with analyses examining the main effect of conditioned place preference phase (e.g., pre- or post-conditioning) and the interaction of drug pretreatment. Significant effects were further analyzed using Sidak’s HSD post hoc testing. All data are presented as mean ± SEM, with significance set at p < 0.05.

C57BL/6J mice [7] = conditions: mouse, in vivo; remark: listed apart in the source
rat KOR [8] = molecular target: T2, rat KOR; conditions: ratio Ki(MOR)/Ki(KOR)
mouse DOR = conditions: radioligand binding; ref [19]; cited from earlier work
C57BL/6J mice [9] = test system: C57BL/6J mice; set-up: key to ED50 i.c.v. (symbol: not calculable) / ED50 p.o. (symbol: not calculable): ~: Maximum antinociception not achieved, precluding calculation of an ED50 value; conditions: ref [19], cited from earlier work
C57BL/6J mice [10] = conditions: mouse, in vivo; remark: listed apart in the source
KOR = molecular target: T3, KOR (Mus musculus, UniProt P33534); test: Antagonist activity against KOR-selective agonist U50,488 (tail-withdrawal assay); type: in vivo; conditions: stereoisomer 30 nmol i.c.v. pretreatment; U50,488 10 mg/kg i.p.
T3 construct: from tissue; host or cells: whole animal, C57BL/6J mice
T3 sequence (P33534 whole entry): as the sequence (P34975 whole entry) above, with E11D, A17S, P51S, V308A counted along it

SMILES	half-life at 5 µM [1] [min]	effect on coordinated locomotor performance (rotarod) vs vehicle (C57BL/6J mice [2])	Fold-Shift, Naïve ED50 vs. Second ED50 (C57BL/6J mice [3]) [fold]	ED50 (95% C.I.) Pretreated Mice (C57BL/6J mice [3])	acute antinociceptive tolerance (C57BL/6J mice [3])	Naïve ED50 (95% C.I.) (C57BL/6J mice [3])	Ki (rat MOR) [nM]	Receptors Involved (in antinociception) (C57BL/6J mice [4])	Ki (rat KOR [5]) [µM]	antinociception at the highest oral dose tested (C57BL/6J mice [6])	time of peak antinociception (C57BL/6J mice [6]; after i.c.v. administration) [min]	duration of significant antinociception (C57BL/6J mice [6]; i.c.v. administration)	ED50 (and 95% C.I.) i.c.v. (C57BL/6J mice [6]; i.c.v.)	ED50 p.o. (symbol: not calculable) (C57BL/6J mice [6])	Selectivity Ki (MOR) Ki (KOR) (rat KOR [8])	antinociceptive efficacy (C57BL/6J mice [6])	time of peak antinociception (C57BL/6J mice [6]; p.o. administration) [min]	ED50 (and 95% C.I.) p.o. (C57BL/6J mice [6])	also measured
O=C1N[C@H](Cc2c[nH]c3ccccc23)C(=O)N[C@H](Cc2ccccc2)C(=O)N2CCC[C@@H]2C(=O)N[C@H]1Cc1ccccc1 (single isomer, unassigned) [Stereoisomer 4, cyclo[D-Phe-D-Pro-Phe-D-Trp]]	30	limited impairment of performance	0.54	1.28 (0.96–1.66) nmol	Neither stereoisomer 4 or 5 demonstrated any significant changes in the ED50 values	2.39 (1.40–4.56) nmol	> 10000	KOR- and DOR-mediated	> 10	45–60%	20	45 min	2.39 (1.40–4.56) nmol	~	–	–	–	–	duration of significant antinociception (C57BL/6J mice [6]; p.o. administration): 30 to 40 min; effect on respiration rate vs vehicle (C57BL/6J mice [7]): significant decreases in respiration rates
O=C1N[C@@H](Cc2ccccc2)C(=O)N2CCC[C@@H]2C(=O)N[C@H](Cc2ccccc2)C(=O)N[C@H]1Cc1c[nH]c2ccccc12 (single isomer, unassigned) [Stereoisomer 2, cyclo[Phe-D-Pro-D-Phe-Trp]]	15	lacked any significant effect	6.13	125 (89.9–224) nmol	the increase was not statistically significant	20.4 (10–58.7) nmol	3920 ± 200	KOR- and MOR-mediated antinociception	0.362 ± 0.051	45–60%	30	90 min	20.4 (10–58.7) nmol	~	11	–	–	–	antinociception at the highest dose tested (C57BL/6J mice [6]; 100 nmol, i.c.v.): approximately 70%
O=C1N[C@H](Cc2c[nH]c3ccccc23)C(=O)N[C@@H](Cc2ccccc2)C(=O)N2CCC[C@@H]2C(=O)N[C@H]1Cc1ccccc1 [[D-Trp]CJ-15,208, cyclo[Phe-D-Pro-Phe-D-Trp]]	–	–	–	–	–	–	–	–	0.0218 ± 0.0048	–	–	–	–	–	12	–	–	–	affinity for DOR (mouse DOR): negligible affinity for DOR; ED50 i.c.v. (symbol: not calculable) (C57BL/6J mice [9]; i.c.v., mice, [21]): ~; ED50 p.o. (symbol: not calculable) (C57BL/6J mice [9]; p.o., mice, [21]): ~; antinociceptive activity (C57BL/6J mice [9]): minimal antinociceptive activity
O=C1N[C@H](Cc2ccccc2)C(=O)N2CCC[C@@H]2C(=O)N[C@H](Cc2ccccc2)C(=O)N[C@H]1Cc1c[nH]c2ccccc12 (single isomer, unassigned) [Stereoisomer 3, cyclo[D-Phe-D-Pro-D-Phe-Trp]]	6	lacked any significant effect	5.19	–	greater acute antinociceptive tolerance than CJ-15,208	1.00 (0.64–1.60) nmol	7780 ± 410	KOR- and DOR-mediated	2.56 ± 0.48	–	20	45 min	1.00 (0.64–1.60) nmol	–	3	full antinociception	20 to 30	4.12 (3.30–5.31) mg/kg	conditioned place preference or aversion (C57BL/6J mice [10]): no significant preference or aversion; effect on ambulation vs vehicle (C57BL/6J mice [7]): elevated ambulations at several time-points
O=C1N[C@H](Cc2ccccc2)C(=O)N2CCC[C@@H]2C(=O)N[C@@H](Cc2ccccc2)C(=O)N[C@H]1Cc1c[nH]c2ccccc12 (single isomer, unassigned) [Stereoisomer 1, cyclo[D-Phe-D-Pro-Phe-Trp]]	54	limited impairment of performance	31.2	–	greater acute antinociceptive tolerance than CJ-15,208	0.65 (0.31–1.31) nmol	> 10000	all three opioid receptors contributed to the antinociception; also recorded: KOR, MOR, DOR	5.12 ± 0.69	–	20	intermediate duration	0.75 (0.36–1.44) nmol	–	–	full antinociception	20 to 30	7.62 (5.12–12.2) mg/kg	antagonism of U50,488 antinociception (KOR antagonist activity) (KOR): significant antagonism of U50,488
